The source of these data is ChEMBL document CHEMBL1155388 (Bioorg Med Chem Lett, 2010).

The source made the active and inactive calls. The rule behind the calls is not given here.

Holding throughout (format): functional, cell-based
Assay [1] addresses T1, Muscarinic acetylcholine receptor M5 (Homo sapiens) (UniProt P08912).
T1 sequence (whole entry): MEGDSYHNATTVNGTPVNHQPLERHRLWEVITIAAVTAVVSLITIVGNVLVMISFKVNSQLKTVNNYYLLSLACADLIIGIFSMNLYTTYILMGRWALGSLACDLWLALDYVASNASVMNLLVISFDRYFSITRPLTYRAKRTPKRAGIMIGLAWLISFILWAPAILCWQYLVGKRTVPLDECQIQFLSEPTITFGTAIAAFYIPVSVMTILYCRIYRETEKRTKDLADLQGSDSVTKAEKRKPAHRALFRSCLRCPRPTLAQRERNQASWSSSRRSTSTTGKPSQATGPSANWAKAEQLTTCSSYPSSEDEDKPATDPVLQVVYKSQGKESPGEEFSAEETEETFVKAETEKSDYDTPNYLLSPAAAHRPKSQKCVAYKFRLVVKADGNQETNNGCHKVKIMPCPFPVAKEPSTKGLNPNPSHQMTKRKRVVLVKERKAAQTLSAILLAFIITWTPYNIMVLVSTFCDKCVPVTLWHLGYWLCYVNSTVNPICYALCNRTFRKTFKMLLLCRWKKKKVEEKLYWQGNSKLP
The experiment in a line: Potentiation of muscarinic M5 receptor expressed in CHO cells assessed as effect on acetylcholine-induced intracellular calcium mobilization at 10 uM after 1 hr by FLIPR assay relative to acetylcholine. (In general: Calcium assays in cells follow changes in intracellular calcium, usually with a dye or a luminescent sensor.)

For assay [2], the target named is Muscarinic acetylcholine receptor M3 (Homo sapiens) (UniProt P20309). The experiment in a line: Potentiation of muscarinic M3 receptor expressed in CHO cells assessed as effect on acetylcholine-induced intracellular calcium mobilization at 30 uM after 1 hr by FLIPR assay relative to acetylcholine.
Assay [3] addresses T2, Muscarinic acetylcholine receptor M1 (Homo sapiens) (UniProt P11229).
T2 sequence (whole entry): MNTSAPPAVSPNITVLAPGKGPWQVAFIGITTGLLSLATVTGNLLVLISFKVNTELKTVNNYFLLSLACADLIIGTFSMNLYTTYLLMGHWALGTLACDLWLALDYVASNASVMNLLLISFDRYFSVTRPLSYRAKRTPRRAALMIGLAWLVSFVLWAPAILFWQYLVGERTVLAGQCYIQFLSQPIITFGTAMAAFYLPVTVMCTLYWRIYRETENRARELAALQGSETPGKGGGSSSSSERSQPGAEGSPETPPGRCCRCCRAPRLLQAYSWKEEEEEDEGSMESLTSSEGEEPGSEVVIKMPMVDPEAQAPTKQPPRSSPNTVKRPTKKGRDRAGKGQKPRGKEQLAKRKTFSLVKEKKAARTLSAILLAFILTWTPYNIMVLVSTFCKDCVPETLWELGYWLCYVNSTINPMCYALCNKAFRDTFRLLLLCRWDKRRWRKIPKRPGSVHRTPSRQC
The experiment in a line: Potentiation of muscarinic M1 receptor expressed in CHO cells assessed as effect on acetylcholine-induced intracellular calcium mobilization at 30 uM after 1 hr by FLIPR assay.

The target in assay [4] is T1, Muscarinic acetylcholine receptor M5 (Homo sapiens). The experiment in a line: Potentiation of muscarinic M5 receptor expressed in CHO cells assessed as effect on acetylcholine-induced intracellular calcium mobilization at 30 uM after 1 hr by FLIPR assay relative to acetylcholine.
Assay [5] deals with T2, Muscarinic acetylcholine receptor M1 (Homo sapiens). Kind of assay: Potentiation of muscarinic M1 receptor expressed in CHO cells assessed as effect on acetylcholine-induced intracellular calcium mobilization after 1 hr by FLIPR assay relative to acetylcholine. On the set-up: concentration or dose not given beside the values.
Assay [6] has the same target. Kind of assay: Potentiation of muscarinic M1 receptor expressed in CHO cells assessed as effect on acetylcholine-induced intracellular calcium mobilization at 10 uM after 1 hr by FLIPR assay.
For assay [7], the target named is T3, Muscarinic acetylcholine receptor M1 (Homo sapiens, UniProt P11229).
T3 sequence (P11229 whole entry): T2 sequence (whole entry)
Kind of assay: Potentiation of muscarinic M1 receptor expressed in CHO cells assessed as effect on acetylcholine-induced intracellular calcium mobilization after 1 hr by FLIPR assay.

The target in assay [8] is T2, Muscarinic acetylcholine receptor M1 (Homo sapiens). The experiment in a line: Potentiation of muscarinic M1 receptor expressed in CHO cells assessed as effect on acetylcholine-induced intracellular calcium mobilization at 100 uM after 1 hr by FLIPR assay.
The target in assay [9] is T4, Muscarinic acetylcholine receptor M2 (Homo sapiens) (UniProt P08172).
T4 sequence (whole entry): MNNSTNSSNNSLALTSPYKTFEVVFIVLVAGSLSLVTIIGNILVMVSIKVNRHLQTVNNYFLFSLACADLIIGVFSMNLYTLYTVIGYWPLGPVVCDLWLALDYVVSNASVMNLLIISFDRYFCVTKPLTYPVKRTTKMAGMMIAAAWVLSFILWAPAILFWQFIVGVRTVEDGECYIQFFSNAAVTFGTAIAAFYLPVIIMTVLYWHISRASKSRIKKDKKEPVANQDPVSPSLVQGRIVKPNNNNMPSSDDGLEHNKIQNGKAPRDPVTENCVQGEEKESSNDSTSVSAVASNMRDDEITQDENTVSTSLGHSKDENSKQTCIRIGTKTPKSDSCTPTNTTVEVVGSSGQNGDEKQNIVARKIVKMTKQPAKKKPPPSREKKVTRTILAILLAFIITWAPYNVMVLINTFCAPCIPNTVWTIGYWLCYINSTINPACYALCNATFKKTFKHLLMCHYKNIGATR
Kind of assay: Potentiation of muscarinic M2 receptor expressed in CHO cells co-transfected with Gqi5 assessed as effect on acetylcholine-induced intracellular calcium mobilization up to 30 uM after 1 hr by FLIPR assay.

For assay [10], the target named is T1, Muscarinic acetylcholine receptor M5 (Homo sapiens). Kind of assay: Potentiation of muscarinic M5 receptor expressed in CHO cells assessed as effect on acetylcholine-induced intracellular calcium mobilization up to 30 uM after 1 hr by FLIPR assay.
Assay [11] has as its target T5, Muscarinic acetylcholine receptor M4 (Homo sapiens) (UniProt P08173).
T5 sequence (whole entry): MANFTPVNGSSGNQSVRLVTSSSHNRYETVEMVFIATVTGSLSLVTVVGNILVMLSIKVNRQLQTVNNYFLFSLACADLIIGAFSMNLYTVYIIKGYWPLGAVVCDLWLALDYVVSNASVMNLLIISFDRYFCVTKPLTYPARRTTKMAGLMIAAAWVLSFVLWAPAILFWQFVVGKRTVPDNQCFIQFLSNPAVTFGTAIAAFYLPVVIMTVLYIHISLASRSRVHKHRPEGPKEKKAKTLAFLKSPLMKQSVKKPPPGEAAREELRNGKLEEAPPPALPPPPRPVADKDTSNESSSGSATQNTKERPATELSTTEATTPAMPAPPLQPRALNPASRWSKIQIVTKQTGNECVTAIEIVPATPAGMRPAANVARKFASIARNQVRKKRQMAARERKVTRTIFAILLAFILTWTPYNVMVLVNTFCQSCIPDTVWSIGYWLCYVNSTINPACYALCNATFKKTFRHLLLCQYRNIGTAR
Kind of assay: Potentiation of muscarinic M4 receptor expressed in CHO cells co-transfected with Gqi5 assessed as effect on acetylcholine-induced intracellular calcium mobilization up to 30 uM after 1 hr by FLIPR assay.

In assay [12] the target is Muscarinic acetylcholine receptor M3 (Homo sapiens) (UniProt P20309). The experiment in a line: Potentiation of muscarinic M3 receptor expressed in CHO cells assessed as effect on acetylcholine-induced intracellular calcium mobilization up to 30 uM after 1 hr by FLIPR assay.

Muscarinic acetylcholine receptor M3 (Homo sapiens), sequence (P20309 whole entry, looked up): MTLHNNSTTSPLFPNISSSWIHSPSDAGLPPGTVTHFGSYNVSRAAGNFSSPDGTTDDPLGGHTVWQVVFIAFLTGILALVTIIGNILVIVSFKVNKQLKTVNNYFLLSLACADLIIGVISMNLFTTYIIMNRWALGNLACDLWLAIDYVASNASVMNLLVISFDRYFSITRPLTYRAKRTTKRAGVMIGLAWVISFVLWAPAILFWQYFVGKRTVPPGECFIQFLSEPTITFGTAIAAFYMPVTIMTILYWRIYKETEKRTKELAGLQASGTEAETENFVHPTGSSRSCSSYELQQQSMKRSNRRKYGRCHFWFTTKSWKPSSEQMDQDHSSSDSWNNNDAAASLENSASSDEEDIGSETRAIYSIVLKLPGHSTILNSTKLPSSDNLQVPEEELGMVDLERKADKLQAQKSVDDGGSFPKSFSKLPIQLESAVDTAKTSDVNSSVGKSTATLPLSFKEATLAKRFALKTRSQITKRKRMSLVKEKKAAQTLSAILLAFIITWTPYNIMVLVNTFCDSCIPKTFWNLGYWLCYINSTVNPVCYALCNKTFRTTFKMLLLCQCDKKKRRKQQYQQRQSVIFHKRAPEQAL

As for `Cn1cc(-c2ccc(CN3C(=O)C(=O)c4ccccc43)cc2)cn1`, the fold change (FC) in assay [1] worked out at 5; in assay [3], 14; in [4], 14; in assay [6] it was 5. Moreover, the Activity was determined as 25% in assay [2], 35% in assay [4] and 80% in assay [5]. For the same compound, the EC50 in [7] is 2300 nM.
Consider `COc1ccc(Cn2cc(C(=O)O)c(=O)c3ccccc32)cc1`, for which the fold change (FC) in assay [8] came out at 100. Besides, the Activity in [5] was found to be 100%.
In the case of `Cn1cc(-c2ccc(CN3C(=O)C(=O)c4cccc(F)c43)c(F)c2)cn1`, in [5], the Activity was found to be 55%. For the same compound, in assay [7], the concentration for a half-maximal effect (EC50) turned out to be 2300 nM.
For `Cn1cc(-c2ccc(CN3C(=O)C(=O)c4c(F)ccc(F)c43)c(F)c2)cn1`, the Activity in assay [5] was found to be 50%. The 50% effective concentration (EC50) in assay [7] stood at 1200 nM.
With `Cn1cc(-c2cc(F)c(CN3C(=O)C(=O)c4cccc(F)c43)c(F)c2)cn1`, in [5], the Activity stood at 40%. Moreover, the concentration giving a half-maximal response (EC50) in assay [7] is 1100 nM.
As for `Cn1cc(-c2ccc(CN3C(=O)C(=O)c4ccccc43)c(F)c2)cn1`, the outcome in assay [9], in assay [10], in assay [11] and in assay [12] was inactive. Further, the fold change (FC) in assay [3] and in [10] was 3 in each case. The Activity in assay [5] was 65%. In assay [7], the EC50 turned out to be 830 nM.
Take `Cn1cc(-c2cc(F)c(CN3C(=O)C(=O)c4ccccc43)c(F)c2)cn1`: the fold change (FC) in [3] and in assay [10] was 2 in each case. Also, in assay [5], the Activity turned out to be 60%. Moreover, the EC50 in [7] amounted to 860 nM.

As a reminder, the EC50 is the concentration giving half of the maximal effect.
